Experimental data as given in US8263605B2, “Modulators of muscarinic receptors” (Vertex Pharmaceutical Incorporated, priority 2006, dated 2012).

Legend:
[1] = molecular target: T1, M1 muscarinic receptor (Homo sapiens, UniProt P11229); test: Functional mobilization of intracellular calcium (FLIPR), M1-CHO cells; assay type: cell-based; conditions: for Emax: 100% efficacy is the maximum response obtained with the Carbachol control; for M1 Activity: CHO cells expressing M1, calcium mobilization
T1 construct: expressed in transfected cells; host or cells: CHO (M1-CHO)
T1 sequence (P11229 1-460): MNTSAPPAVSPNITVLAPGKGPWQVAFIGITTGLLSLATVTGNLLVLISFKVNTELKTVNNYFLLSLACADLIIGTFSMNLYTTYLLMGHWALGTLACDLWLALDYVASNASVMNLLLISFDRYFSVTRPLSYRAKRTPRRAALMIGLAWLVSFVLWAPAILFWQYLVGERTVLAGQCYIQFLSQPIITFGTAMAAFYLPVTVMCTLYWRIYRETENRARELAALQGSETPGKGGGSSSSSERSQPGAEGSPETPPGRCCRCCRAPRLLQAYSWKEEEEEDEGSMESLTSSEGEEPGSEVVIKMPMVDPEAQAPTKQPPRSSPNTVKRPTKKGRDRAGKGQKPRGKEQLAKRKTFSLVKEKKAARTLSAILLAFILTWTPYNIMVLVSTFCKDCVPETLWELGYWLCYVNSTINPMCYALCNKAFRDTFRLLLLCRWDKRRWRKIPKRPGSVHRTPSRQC
In short: (§1)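 Recombinant CHO cells loaded with Fluo-3 AM or Calcium 3 dye; fluorescence recorded 60 s on FLIPR in pH 7.4 buffer with 1 mM probenecid, 0.5% DMSO. Agonist mode: compound alone; antagonist mode: 15 min preincubation (or co-application) then carbachol at EC80. Efficacy relative to maximal carbachol response.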

[2] = molecular target: T2, M4 muscarinic receptor (Homo sapiens, UniProt P08173); test: Functional mobilization of intracellular calcium (FLIPR), M4-CHO cells; assay type: cell-based; conditions: for Emax: 100% efficacy is the maximum response obtained with the Carbachol control; for M4 Activity: CHO cells expressing M4, calcium mobilization
T2 construct: expressed in transfected cells; host or cells: CHO (M4-CHO)
T2 sequence (P08173 1-479): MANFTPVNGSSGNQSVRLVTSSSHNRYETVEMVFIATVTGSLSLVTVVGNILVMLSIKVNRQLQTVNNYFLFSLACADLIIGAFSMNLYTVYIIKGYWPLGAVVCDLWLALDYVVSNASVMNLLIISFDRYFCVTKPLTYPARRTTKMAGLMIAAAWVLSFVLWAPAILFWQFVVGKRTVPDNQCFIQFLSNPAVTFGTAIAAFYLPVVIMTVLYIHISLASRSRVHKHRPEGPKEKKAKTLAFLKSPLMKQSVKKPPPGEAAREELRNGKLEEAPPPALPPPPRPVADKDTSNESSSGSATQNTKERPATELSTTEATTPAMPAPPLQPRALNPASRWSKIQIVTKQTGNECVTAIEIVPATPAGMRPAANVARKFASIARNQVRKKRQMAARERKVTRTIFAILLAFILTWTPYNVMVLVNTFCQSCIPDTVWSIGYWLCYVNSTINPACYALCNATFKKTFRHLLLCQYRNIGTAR
In short: as §1

Cc1nsc(N2CCC(N3CCC4(CC3)CN(C(=O)N(C)C)c3ccccc34)CC2)n1 [compound 53]
Emax [1]: 25 to 100%
M1 Activity [1]: +++ (activity was measured to be less than 2.0 μM)
Emax [2]: > 100%
M4 Activity [2]: +++ (activity was measured to be less than 2.0 μM)

COC(=O)N1CC[C@@H](CN2CCC3(CC2)CN(C(=O)N(C)C)c2ccccc23)C1 [compound 54]
Emax [1]: 25 to 100%
M1 Activity [1]: +++ (activity was measured to be less than 2.0 μM)
Emax [2]: 25 to 100%
M4 Activity [2]: +++ (activity was measured to be less than 2.0 μM)

CCCOC(=O)N1CC[C@@H](CN2CCC3(CC2)CN(C(=O)N(C)C)c2ccccc23)C1 [compound 55]
Emax [1]: < 25%
M1 Activity [1]: ++ (activity was measured to be from 2.0 μM to 10.0 μM)
Emax [2]: 25 to 100%
M4 Activity [2]: +++ (activity was measured to be less than 2.0 μM)

CC(C)OC(=O)N1CC[C@@H](CN2CCC3(CC2)CN(C(=O)N(C)C)c2ccccc23)C1 [compound 56]
Emax [1]: 25 to 100%
M1 Activity [1]: ++ (activity was measured to be from 2.0 μM to 10.0 μM)
Emax [2]: 25 to 100%
M4 Activity [2]: +++ (activity was measured to be less than 2.0 μM)

CN(C)C(=O)N1CC2(CCN(C[C@@H]3CCN(C(=O)OCC(F)F)C3)CC2)c2ccccc21 [compound 57]
Emax [1]: 25 to 100%
M1 Activity [1]: +++ (activity was measured to be less than 2.0 μM)
Emax [2]: 25 to 100%
M4 Activity [2]: +++ (activity was measured to be less than 2.0 μM)

COCCOC(=O)N1CC[C@@H](CN2CCC3(CC2)CN(C(=O)N(C)C)c2ccccc23)C1 [compound 58]
Emax [1]: 25 to 100%
M1 Activity [1]: ++ (activity was measured to be from 2.0 μM to 10.0 μM)
Emax [2]: 25 to 100%
M4 Activity [2]: +++ (activity was measured to be less than 2.0 μM)

COC(=O)N1CC[C@H](CN2CCC3(CC2)CN(C(=O)N(C)C)c2ccccc23)C1 [compound 59]
Emax [1]: 25 to 100%
M1 Activity [1]: +++ (activity was measured to be less than 2.0 μM)
Emax [2]: 25 to 100%
M4 Activity [2]: +++ (activity was measured to be less than 2.0 μM)

CCOC(=O)N1CC[C@H](CN2CCC3(CC2)CN(C(=O)N(C)C)c2ccccc23)C1 [compound 60]
Emax [1]: 25 to 100%
M1 Activity [1]: +++ (activity was measured to be less than 2.0 μM)
Emax [2]: 25 to 100%
M4 Activity [2]: +++ (activity was measured to be less than 2.0 μM)

CCCOC(=O)N1CC[C@H](CN2CCC3(CC2)CN(C(=O)N(C)C)c2ccccc23)C1 [compound 61]
Emax [1]: < 25%
M1 Activity [1]: ++ (activity was measured to be from 2.0 μM to 10.0 μM)
Emax [2]: 25 to 100%
M4 Activity [2]: +++ (activity was measured to be less than 2.0 μM)

CC(C)OC(=O)N1CC[C@H](CN2CCC3(CC2)CN(C(=O)N(C)C)c2ccccc23)C1 [compound 62]
Emax [1]: 25 to 100%
M1 Activity [1]: ++ (activity was measured to be from 2.0 μM to 10.0 μM)
Emax [2]: 25 to 100%
M4 Activity [2]: +++ (activity was measured to be less than 2.0 μM)

CN(C)C(=O)N1CC2(CCN(C[C@H]3CCN(C(=O)OCC(F)F)C3)CC2)c2ccccc21 [compound 63]
Emax [1]: 25 to 100%
M1 Activity [1]: +++ (activity was measured to be less than 2.0 μM)
Emax [2]: 25 to 100%
M4 Activity [2]: +++ (activity was measured to be less than 2.0 μM)

COCCOC(=O)N1CC[C@H](CN2CCC3(CC2)CN(C(=O)N(C)C)c2ccccc23)C1 [compound 64]
Emax [1]: 25 to 100%
M1 Activity [1]: ++ (activity was measured to be from 2.0 μM to 10.0 μM)
Emax [2]: 25 to 100%
M4 Activity [2]: +++ (activity was measured to be less than 2.0 μM)

COC(=O)N1CCCC(N2CCC3(CC2)CN(C(=O)N(C)C)c2ccccc23)CC1 (stereo not shown) [compound 67]
Emax [1]: 25 to 100%
M1 Activity [1]: +++ (activity was measured to be less than 2.0 μM)
Emax [2]: 25 to 100%
M4 Activity [2]: +++ (activity was measured to be less than 2.0 μM)
